{
  "source": "paper PMC8413292",
  "about": "“Small-molecule polymerase inhibitor protects non-human primates from measles and reduces shedding” (Nature Communications, 2021)",
  "key": {"[1]": {"assay": "Single-dose oral pharmacokinetic study in squirrel monkeys (LC/MS/MS serum concentrations)", "format": "in vivo, squirrel monkeys (Saimiri sciureus)", "conditions": "for tmax: 50 mg/kg oral (intragastric) single dose", "procedure": "(§1) All animal experiments were carried out in compliance with the regulations of German animal protection laws and authorized by the Regierungspräsidium Darmstadt, Germany (Dezernat V54 – Veterinärwesen und Verbraucherschutz, Hilpertstrasse 31, 64295 Darmstadt). Adult male and female squirrel monkeys (Saimiri sciureus) were obtained from BioPRIM, 31450 Baziege, or CNRS 0846 Primatologie, 13790 Rousset, France. Each experimental group was housed in a separate room, and animals of the same sex were caged together within the respective groups. For the single-dose pharmacokinetic experiment, animals were anesthetized, and the drug was given through a stomach tube at a concentration of 50 mg/kg bodyweight. Blood samples were collected after 15, 30, and 60 min, and 2, 3, 6, and 24 h. For efficacy assessment, groups of 6 animals were left untreated or treated with 50 mg/kg of ERDRP-0519 twice daily for two weeks, starting either 12 h before or 3 or 7 days after intranasal infection with 10^6 TCID50 of MV/FrankfurtMain.DEU/17.11. Clinical signs, rectal temperature, and weight were recorded daily, and throat swabs and blood samples were collected before infection and twice weekly thereafter. On day 21 post-infection, the animals were euthanized, necropsied, and samples were collected for histological analysis.\n(§2) Drug concentrations were determined using an internal standard and a reversed phase isocratic HPLC method with positive ion electrospray ionization (ESI) mass spectrometry detection (LC/MS/MS) on an AB-SCIEX API 5500 MS/MS instrument (5 μl injection volume). Pharmacokinetic parameters were estimated using WinNonlin 5.3 (Pharsight)."}, "[2]": {"assay": "Trough serum concentration during 14-day b.i.d. oral treatment of infected squirrel monkeys", "conditions": "for ERDRP-0519 trough serum concentration: 50 mg/kg b.i.d. oral", "procedure": "as §1, §2"}, "MeV N gene RNA": {"tested_on": "MeV N gene RNA", "assay": "Quantitative RT-PCR of MeV N-gene RNA in lymph nodes", "format": "in vivo", "conditions": "for MeV N-gene RNA levels in lymph nodes versus untreated: 21 days post-infection", "procedure": "Organs (21 days post-infection) and PBMCs (twice a week) were frozen in RNAlater (Qiagen) at −80 °C until further processing. For the deceased animal, organs were frozen in RNAlater at the day of death. Lymph nodes were thawed on ice, transferred to TRIzol (ambion life technologies) and homogenized using a tissue homogenizer. Total RNA of lymph nodes and PBMCs was extracted following the TRIzol manufacturer’s protocol. RNA (1000 ng for lymph nodes; 110 ng for PBMCs) was then subjected to reverse transcription using random hexamer primers and Superscript III reverse transcriptase in accordance with the manufacturer’s protocols. Subsequent quantitative PCR (qPCR) was carried out using primer pairs specific for a fragment in the MeV N gene[23] or GAPDH gene(Supplementary Table 2) and the PowerUp SYBR Green Master Mix (Thermo Fisher Scientific) in an Applied Biosystems 7500 Real-Time PCR system. Samples were normalized for GAPDH. The comparative (ΔΔCt) Ct method was applied to determine relative amounts of N-encoding RNA present in samples from treated animals compared to those obtained from untreated control animals (lymph nodes) or compared to those obtained from untreated control animals on day 7 post-infection (peak PBMC virus titer)."}, "[3]": {"assay": "Body weight of squirrel monkeys during the efficacy study", "format": "in vivo, squirrel monkeys (Saimiri sciureus)", "conditions": "all animals throughout the study", "procedure": "as §1"}, "[4]": {"conditions": "both sexes, monkey, serum, squirrel monkeys, 50 mg/kg oral single dose, n = 3"}},
  "note": "Several values for one entry are separate records, joined by “and”; a condition that tells them apart may be missing. Equal values may be shown once. Read-outs that look alike come from different tables or passages of the source.",
  "data": [
    {"smiles": "Cn1nc(C(F)(F)F)cc1C(=O)Nc1ccc(S(=O)(=O)N2CCCC[C@H]2CCN2CCOCC2)cc1", "note": "[ERDRP-0519]", "values": [
      {"measurement": "concentration at 2 h", "setting": "[1]; 50 mg/kg oral, 0.25 h post-application, individual animals, read-out: ERDRP-0519 serum conc.", "result": "672.2 nM and 1545 nM and 3833 nM"},
      {"measurement": "concentration at 2 h", "setting": "[1]; 50 mg/kg oral, 0.5 h post-application, individual animals, read-out: ERDRP-0519 serum conc.", "result": "691.1 nM and 917.7 nM and 3493 nM"},
      {"measurement": "concentration at 2 h", "setting": "[1]; 50 mg/kg oral, 1 h post-application, individual animals, read-out: ERDRP-0519 serum conc.", "result": "1158 nM and 2002 nM and 3607 nM"},
      {"measurement": "concentration at 2 h", "setting": "[1]; 50 mg/kg oral, 2 h post-application, individual animals, read-out: ERDRP-0519 serum conc.", "result": "3078 nM and 3040 nM"},
      {"measurement": "concentration at 2 h", "setting": "[1]; 50 mg/kg oral, 3 h post-application, individual animals, read-out: ERDRP-0519 serum conc.", "result": "2889 nM and 2172 nM"},
      {"measurement": "concentration at 2 h", "setting": "[1]; 50 mg/kg oral, 6 h post-application, individual animals, read-out: ERDRP-0519 serum conc.", "result": "1259.5 nM and 991.4 nM"},
      {"measurement": "concentration at 2 h", "setting": "[1]; 50 mg/kg oral, 24 h post-application, individual animals, read-out: ERDRP-0519 serum conc.", "result": "39.09 nM and 98 nM and 77.99 nM"},
      {"measurement": "concentration at 0 h", "setting": "[1]; both sexes, monkey, serum, oral, 50 mg/kg, 50 mg/kg oral, 0 h post-application, individual animals, read-out: ERDRP-0519 serum conc.", "result": 0, "unit": "nM"},
      {"measurement": "concentration at 2 h", "setting": "[1]; both sexes, monkey, serum, oral, 50 mg/kg, 50 mg/kg oral, 2 h post-application, individual animals, read-out: ERDRP-0519 serum conc.", "result": 2490, "unit": "nM"},
      {"measurement": "concentration at 3 h", "setting": "[1]; both sexes, monkey, serum, oral, 50 mg/kg, 50 mg/kg oral, 3 h post-application, individual animals, read-out: ERDRP-0519 serum conc.", "result": 2510, "unit": "nM"},
      {"measurement": "concentration at 6 h", "setting": "[1]; both sexes, monkey, serum, oral, 50 mg/kg, 50 mg/kg oral, 6 h post-application, individual animals, read-out: ERDRP-0519 serum conc.", "result": 1340, "unit": "nM"},
      {"measurement": "tmax", "setting": "[1]; both sexes, monkey, serum, po, 50 mg/kg, squirrel monkeys, n = 3, read-out: tmax", "result": 1.8, "unit": "h"},
      {"measurement": "AUC(0-inf)", "setting": "[1]; [4]", "result": 24.4, "unit": "µM·h"},
      {"measurement": "Cmax", "setting": "[1]; [4]", "result": 3270, "unit": "nM"},
      {"measurement": "half-life", "setting": "[1]; both sexes, monkey, serum, squirrel monkeys, 50 mg/kg oral single dose, n = 3, read-out: t1/2 terminal elimination half-life (converted)", "result": 4.2, "unit": "h"},
      {"measurement": "tmax", "setting": "[1]; squirrel monkeys, n = 3, 50 mg/kg", "result": "~ 2 h"},
      {"measurement": "ERDRP-0519 trough serum concentration", "setting": "[2]; 0 days post-treatment, individual animals", "result": "0 µM and 0.05627 µM and 0.03323 µM"},
      {"measurement": "ERDRP-0519 trough serum concentration", "setting": "[2]; 3 days post-treatment, individual animals", "result": "0.9158 µM and 2.53 µM and 4.796 µM and 7.1567 µM and 0.8139 µM and 7.176 µM and 3.758 µM and 1.907 µM and 3.569 µM and 2.058 µM and 2.606 µM and 7.006 µM and 2.984 µM and 1.541 µM and 2.285 µM"},
      {"measurement": "ERDRP-0519 trough serum concentration", "setting": "[2]; 7 days post-treatment, individual animals", "result": "0.9763 µM and 1.28 µM and 2.908 µM and 3.21 µM and 2.4548 µM and 4.759 µM and 3.323 µM and 2.832 µM and 2.134 µM and 0.6741 µM and 2.096 µM and 3.644 µM and 0.525 µM and 0.5703 µM"},
      {"measurement": "ERDRP-0519 trough serum concentration", "setting": "[2]; 10 days post-treatment, individual animals", "result": "1.654 µM and 2.228 µM and 2.832 µM and 4.4753 µM and 4.4 µM and 4.664 µM and 1.699 µM and 1.669 µM and 0.9989 µM and 0.9857 µM and 2.153 µM and 3.116 µM and 0.6949 µM and 1.573 µM and 0.608 µM"},
      {"measurement": "ERDRP-0519 trough serum concentration", "setting": "[2]; 14 days post-treatment, individual animals", "result": "0.08309 µM and 0.0727 µM and 0.355 µM and 0.6534 µM and 1.862 µM and 2.172 µM and 2.474 µM and 1.513 µM and 0.2417 µM and 0.676 µM and 1.412 µM and 0.1537 µM and 0.3267 µM and 0.02398 µM"},
      {"measurement": "concentration at 7 days post-infection", "setting": "[2]; both, monkey, serum, oral, 50 mg/kg twice daily, ERDRP-0519 serum conc., therapeutic(d7) group, day 7 post-infection, individual animals", "result": 0, "unit": "nM"},
      {"measurement": "Mean drug plasma concentration of all animals over the full study period", "setting": "[2]; monkey, in vivo", "result": "~ 1.6 µM"},
      {"measurement": "drug accumulation on repeat-dosing", "setting": "[2]; multi-dose b.i.d., 15 animals", "result": "does not result in ERDRP-0519 accumulation"},
      {"measurement": "Lymph node fold difference, group mean (Mean 2)", "setting": "MeV N gene RNA; prophylactic", "result": 0.06859},
      {"measurement": "fold difference (Lymph node MeV N RNA), individual animals", "setting": "MeV N gene RNA; prophylactic", "result": "0.002631 and 0.0102 and 0.1018 and 0.01292 and 0.2776 and 0.00638"},
      {"measurement": "MeV N-gene RNA levels in lymph nodes versus untreated", "setting": "MeV N gene RNA; prophylactic group, p = 0.0295", "result": "significantly decreased"},
      {"measurement": "Lymph node fold difference, group mean (Mean 2)", "setting": "MeV N gene RNA; therapeutic (d3)", "result": 0.1137},
      {"measurement": "fold difference (Lymph node MeV N RNA), individual animals", "setting": "MeV N gene RNA; therapeutic (d3)", "result": "0.5644 and 0.005805 and 0.02288 and 0.01111 and 0.0007117 and 0.07727"},
      {"measurement": "Lymph node fold difference, group mean (Mean 2)", "setting": "MeV N gene RNA; therapeutic (d7)", "result": 0.7008},
      {"measurement": "fold difference (Lymph node MeV N RNA), individual animals", "setting": "MeV N gene RNA; therapeutic (d7)", "result": "1.441 and 0.8274 and 0.2474 and 0.8349 and 0.2786 and 0.5749"},
      {"measurement": "MeV N-gene RNA levels in lymph nodes versus untreated", "setting": "MeV N gene RNA; therapeutic day 3 group, p = 0.0346", "result": "significantly decreased"},
      {"measurement": "Lymph node fold difference, Mean Diff,", "setting": "MeV N gene RNA; untreated vs. prophylactic", "result": 1.828},
      {"measurement": "Lymph node fold difference, Mean Diff,", "setting": "MeV N gene RNA; untreated vs. therapeutic (d3)", "result": 1.783},
      {"measurement": "Lymph node fold difference, Mean Diff,", "setting": "MeV N gene RNA; untreated vs. therapeutic (d7)", "result": 1.196},
      {"measurement": "Body weight changes", "setting": "[3]", "result": "negligible"}
    ]}
  ]
}
